Values quoted from earlier work as cited in article PMC10353446, “Pharmacokinetics of SPR206 in Plasma, Pulmonary Epithelial Lining Fluid, and Alveolar Macrophages following Intravenous Administration to Healthy Adult Subjects” (Antimicrobial Agents and Chemotherapy, 2023).

Assays:
[1] = in vivo, cited from earlier work
[2] = human, in vivo, iv; cited from earlier work

colistin
Lung concentrations ([1]; iv): undetectable
Lung concentrations relative to MIC50 for P. aeruginosa [1]: below the MIC50 for P. aeruginosa
Levels in BAL fluid [2]: undetectable levels
